Legend:
[1] = Stability of cannabinoid compounds and Vitamin E components in Beverage 1 (AB White) by LCMSMS; type: physicochemical; conditions: AB White stored at 21-25° C.
Protocol: The stability of the plant-derived cannabinoid compounds and Vitamin E components of the beverage stored 8° C. and at room temperature (21-25° C.) were monitored, over a period of 570 days via Liquid Chromatography-tandem Mass Spectrometry [LCMSMS, Agilent 6590, C18, 3×50 mm, 2.7 m (Agilent InfinityLab Poroshell 120 EC-C18), Electrospray Ionization detector]. The LCMSMS was calibrated for 0-1000 ng/ml cannabinoids with the same resin material used in the preparation of the concentrates. At each time period, 100 ml of beverage was diluted with 10 ml of methanol and injected into the LCMSMS for analysis.

[2] = Stability of cannabinoid entourage and Vitamin E components of the powder concentrate by LCMSMS; type: physicochemical; conditions: for Stability of Plant-Derived Cannabinoid Compounds in Powder Concentrate: powder stored at 21-25° C.
Protocol: At each time period, 0.05 g of powder was dissolved in 10 ml-15 of ethanol, diluted to fall within the analytical range, and injected into the LCMSMS for analysis.

CCCCCc1cc(O)c2c(c1)OC(C)(C)[C@@H]1CCC(C)=C[C@@H]21 [D9 THC, delta-9-tetrahydrocannabinol, reference compound]
Stability of Plant-Derived Cannabinoid Compounds in AB White, 21-25° C. ([1]; 29 days): 11.9 µg/mL | Stability of Plant-Derived Cannabinoid Compounds in AB White, 21-25° C. ([1]; 30 days): 11.9 µg/mL | Stability of Plant-Derived Cannabinoid Compounds in AB White, 21-25° C. ([1]; 60 days): 11.9 µg/mL | Stability of Plant-Derived Cannabinoid Compounds in AB White, 21-25° C. ([1]; 90 days): 12.0 µg/mL | Stability of Plant-Derived Cannabinoid Compounds in AB White, 21-25° C. ([1]; 120 days): 11.7 µg/mL | Stability of Plant-Derived Cannabinoid Compounds in AB White, 21-25° C. ([1]; 150 days): 11.7 µg/mL | Stability of Plant-Derived Cannabinoid Compounds in AB White, 21-25° C. ([1]; 180 days): 11.9 µg/mL | Stability of Plant-Derived Cannabinoid Compounds in AB White, 21-25° C. ([1]; 210 days): 11.4 µg/mL | Stability of Plant-Derived Cannabinoid Compounds in AB White, 21-25° C. ([1]; 240 days): 11.7 µg/mL | Stability of Plant-Derived Cannabinoid Compounds in AB White, 21-25° C. ([1]; 270 days): 11.9 µg/mL | Stability of Plant-Derived Cannabinoid Compounds in AB White, 21-25° C. ([1]; 300 days): 12.0 µg/mL | Stability of Plant-Derived Cannabinoid Compounds in AB White, 21-25° C. ([1]; 330 days): 11.4 µg/mL | Stability of Plant-Derived Cannabinoid Compounds in AB White, 21-25° C. ([1]; 360 days): 11.7 µg/mL | Stability of Plant-Derived Cannabinoid Compounds in AB White, 21-25° C. ([1]; 390 days): 11.4 µg/mL | Stability of Plant-Derived Cannabinoid Compounds in AB White, 21-25° C. ([1]; 420 days): 11.7 µg/mL | Stability of Plant-Derived Cannabinoid Compounds in AB White, 21-25° C. ([1]; 450 days): 11.7 µg/mL | Stability of Plant-Derived Cannabinoid Compounds in AB White, 21-25° C. ([1]; 480 days): 11.2 µg/mL | Stability of Plant-Derived Cannabinoid Compounds in AB White, 21-25° C. ([1]; 510 days): 11.2 µg/mL | Stability of Plant-Derived Cannabinoid Compounds in AB White, 21-25° C. ([1]; 540 days): 11.2 µg/mL | Stability of Plant-Derived Cannabinoid Compounds in AB White, 21-25° C. ([1]; 570 days): 11.2 µg/mL | stability over the entire period (in words) ([1]; 570 days): high degree of stability | degradation over the entire period (in words) ([2]; powder concentrate stored at 21-25° C., 570 days): no significant degradation | Stability of Plant-Derived Cannabinoid Compounds in Powder Concentrate ([2]; 0 days): 2.55 mg/g powder | Stability of Plant-Derived Cannabinoid Compounds in Powder Concentrate ([2]; 1 days): 2.55 mg/g powder | Stability of Plant-Derived Cannabinoid Compounds in Powder Concentrate ([2]; 2 days): 2.46 mg/g powder | Stability of Plant-Derived Cannabinoid Compounds in Powder Concentrate ([2]; 3 days): 2.63 mg/g powder | Stability of Plant-Derived Cannabinoid Compounds in Powder Concentrate ([2]; 5 days): 2.66 mg/g powder | Stability of Plant-Derived Cannabinoid Compounds in Powder Concentrate ([2]; 8 days): 2.49 mg/g powder | Stability of Plant-Derived Cannabinoid Compounds in Powder Concentrate ([2]; 9 days): 2.49 mg/g powder | Stability of Plant-Derived Cannabinoid Compounds in Powder Concentrate ([2]; 10 days): 2.60 mg/g powder | Stability of Plant-Derived Cannabinoid Compounds in Powder Concentrate ([2]; 11 days): 2.58 mg/g powder | Stability of Plant-Derived Cannabinoid Compounds in Powder Concentrate ([2]; 12 days): 2.65 mg/g powder | Stability of Plant-Derived Cannabinoid Compounds in Powder Concentrate ([2]; 15 days): 2.49 mg/g powder | Stability of Plant-Derived Cannabinoid Compounds in Powder Concentrate ([2]; 16 days): 2.54 mg/g powder | Stability of Plant-Derived Cannabinoid Compounds in Powder Concentrate ([2]; 17 days): 2.54 mg/g powder | Stability of Plant-Derived Cannabinoid Compounds in Powder Concentrate ([2]; 18 days): 2.55 mg/g powder | Stability of Plant-Derived Cannabinoid Compounds in Powder Concentrate ([2]; 19 days): 2.51 mg/g powder | Stability of Plant-Derived Cannabinoid Compounds in Powder Concentrate ([2]; 22 days): 2.46 mg/g powder | Stability of Plant-Derived Cannabinoid Compounds in Powder Concentrate ([2]; 23 days): 2.65 mg/g powder | Stability of Plant-Derived Cannabinoid Compounds in Powder Concentrate ([2]; 24 days): 2.60 mg/g powder | Stability of Plant-Derived Cannabinoid Compounds in Powder Concentrate ([2]; 25 days): 2.55 mg/g powder | Stability of Plant-Derived Cannabinoid Compounds in Powder Concentrate ([2]; 26 days): 2.52 mg/g powder | Stability of Plant-Derived Cannabinoid Compounds in Powder Concentrate ([2]; 29 days): 2.47 mg/g powder | Stability of Plant-Derived Cannabinoid Compounds in Powder Concentrate ([2]; 30 days): 2.66 mg/g powder | Stability of Plant-Derived Cannabinoid Compounds in Powder Concentrate ([2]; 60 days): 2.66 mg/g powder | Stability of Plant-Derived Cannabinoid Compounds in Powder Concentrate ([2]; 90 days): 2.49 mg/g powder | Stability of Plant-Derived Cannabinoid Compounds in Powder Concentrate ([2]; 120 days): 2.66 mg/g powder | Stability of Plant-Derived Cannabinoid Compounds in Powder Concentrate ([2]; 150 days): 2.61 mg/g powder | Stability of Plant-Derived Cannabinoid Compounds in Powder Concentrate ([2]; 180 days): 2.59 mg/g powder | Stability of Plant-Derived Cannabinoid Compounds in Powder Concentrate ([2]; 210 days): 2.54 mg/g powder | Stability of Plant-Derived Cannabinoid Compounds in Powder Concentrate ([2]; 240 days): 2.53 mg/g powder | Stability of Plant-Derived Cannabinoid Compounds in Powder Concentrate ([2]; 270 days): 2.47 mg/g powder | Stability of Plant-Derived Cannabinoid Compounds in Powder Concentrate ([2]; 300 days): 2.57 mg/g powder | Stability of Plant-Derived Cannabinoid Compounds in Powder Concentrate ([2]; 330 days): 2.49 mg/g powder | Stability of Plant-Derived Cannabinoid Compounds in Powder Concentrate ([2]; 360 days): 2.58 mg/g powder | Stability of Plant-Derived Cannabinoid Compounds in Powder Concentrate ([2]; 390 days): 2.48 mg/g powder | Stability of Plant-Derived Cannabinoid Compounds in Powder Concentrate ([2]; 420 days): 2.53 mg/g powder | Stability of Plant-Derived Cannabinoid Compounds in Powder Concentrate ([2]; 450 days): 2.61 mg/g powder | Stability of Plant-Derived Cannabinoid Compounds in Powder Concentrate ([2]; 480 days): 2.65 mg/g powder | Stability of Plant-Derived Cannabinoid Compounds in Powder Concentrate ([2]; 510 days): 2.64 mg/g powder | Stability of Plant-Derived Cannabinoid Compounds in Powder Concentrate ([2]; 540 days): 2.47 mg/g powder | Stability of Plant-Derived Cannabinoid Compounds in Powder Concentrate ([2]; 570 days): 2.64 mg/g powder

Reference: patent US20260130395A1, “Water Dispersible Botanical Compositions” (Aquila Black Limited, priority 2021, published 2026)
